# Measurements reported in patent US7718641B2, “Pyrrolo [3,4-H] isoquinoline compounds and methods for modulating gated ion channels” (Aros Pharma ApS, priority 2005, dated 2010).
# What was measured:
# [1] = biological target: T1, rat ASIC1a (Rattus norvegicus, UniProt P55926); assay: Whole-cell patch clamp of acid-induced peak inward currents in HEK293 transfected with rat ASIC1a; assay type: cell-based; settings: for inhibitory effect on acid-induced peak inward currents, rASIC1a: HEK293, voltage clamp, increasing concentrations; for potency as antagonist compared to amiloride, rASIC1a: full dose-inhibition curves, HEK293
# T1 construct: expressed in transfected cells; host or cells: HEK293
# T1 sequence (P55926 1-526): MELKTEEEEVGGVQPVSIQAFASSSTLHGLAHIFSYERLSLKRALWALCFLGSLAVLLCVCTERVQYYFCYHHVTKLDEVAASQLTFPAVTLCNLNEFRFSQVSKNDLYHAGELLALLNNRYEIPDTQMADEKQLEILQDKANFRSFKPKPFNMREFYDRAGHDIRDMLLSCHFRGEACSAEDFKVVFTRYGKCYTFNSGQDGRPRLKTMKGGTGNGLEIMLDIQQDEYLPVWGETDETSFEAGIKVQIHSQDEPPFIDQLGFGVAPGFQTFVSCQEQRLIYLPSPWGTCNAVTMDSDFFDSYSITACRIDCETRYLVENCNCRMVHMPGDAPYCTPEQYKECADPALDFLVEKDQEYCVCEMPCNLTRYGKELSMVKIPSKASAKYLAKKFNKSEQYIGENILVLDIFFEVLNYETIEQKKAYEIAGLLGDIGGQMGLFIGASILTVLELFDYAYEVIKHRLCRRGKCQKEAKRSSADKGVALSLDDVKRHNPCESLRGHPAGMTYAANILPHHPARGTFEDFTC
# Description: Another example of an in vitro assessment method consists of using mammalian heterologous expression systems, which are known to the skilled in the art, and include a variety of mammalian cell lines such as COS, HEK, e.g., HEK293 and/or CHO, cells. Cell lines are transfected with gated ion channel(s) and used to perform electrophysiology as follows:
# All experiments are performed at room temperature (20-25° C.) in voltage clamp using conventional whole cell patch clamp methods (Neher, E., et al. (1978) Pfluegers Arch 375:219-228).
# The amplifier used is the EPC-9 (HEKA-electronics, Lambrect, Germany) run by a Macintosh G3 computer via an ITC-16 interface. Experimental conditions are set with the Pulse-software accompanying the amplifier. Data is low pass filtered and sampled directly to hard-disk at a rate of 3 times the cut-off frequency.
# Pipettes are pulled from borosilicate glass using a horizontal electrode puller (Zeitz-Instrumente, Augsburg, Germany). The pipette resistances are 2-3 MOhms in the salt solutions used in these experiments. The pipette electrode is a chloridized silver wire, and the reference is a silver chloride pellet electrode (In Vivo Metric, Healdsburg, USA) fixed to the experimental chamber. The electrodes are zeroed with the open pipette in the bath just prior to sealing.
# Coverslips with the cells are transferred to a 15 μl experimental chamber mounted on the stage of an inverted microscope (IMT-2, Olympus) supplied with Nomarski optics. Cells are continuously superfused with extracellular saline at a rate of 2.5 ml/min. After giga-seal formation, the whole cell configuration is attained by suction. The cells are held at a holding voltage of −60 mV and at the start of each experiment the current is continuously measured for 45 s to ensure a stable baseline. Solutions of low pH (<7) are delivered to the chamber through a custom-made gravity-driven flowpipe, the tip of which is placed approximately 50 μm from the cell. Application is triggered when the tubing connected to the flowpipe is compressed by a valve controlled by the Pulse-software. Initially, low pH (in general, pH 6.5) is applied for 5 s every 60 s. The sample interval during application is 5501s. […] Current amplitudes are measured at the peak of the responses, and effect of the compounds is calculated as the amplitude at compound equilibrium divided by the amplitude of the current evoked by the pulse just before the compound was included. […]
# HEK293 cells were transfected with rASIC1a or rASIC3 and were used to perform full dose-inhibition curves with Compound A, Compound H and amiloride. Results are expressed as a fraction of the control peak current obtained in the absence of the test substance.
# [2] = system: rat dorsal root ganglion neurons; assay: Patch clamp (voltage clamp) of native proton-gated currents in rat dorsal root ganglion neurons in primary culture; assay type: cell-based; settings: 1 μM, voltage-clamp mode, n=3
# Description: These endogenous proton-activated inward currents were recorded in the presence and absence of Compound A (1 μM) or Compound H (1 μM) using the whole cell configuration of the patch clamp method (voltage clamp mode).
# Sensory neurons can be isolated and cultured in vitro from different animal species. The most widely used protocols use sensory neurons isolated from neonatal (Eckert, et al. (1997) J Neurosci Methods 77:183-190) and embryonic (Vasko, et al. (1994) J Neurosci 14:4987-4997) rat. […] Electrophysiology is performed similarly as described above in Example 2. […] In the current-clamp mode, change in the trans-membrane potential are recorded. Under acidic conditions (e.g., pH 6.5) the membrane depolarizes, leading to the firing of action potentials, as shown in FIGS. 7A and 7B.
Structure (SMILES),"inhibitory effect on acid-induced peak inward currents, rASIC1a [1]","potency as antagonist compared to amiloride, rASIC1a [1]",effect on pH 6.5-induced inward current in sensory neurons [2]
"CCN1CCc2c(-c3ccccc3)cc3c(c2C1)NC(=O)/C3=N/O [Compound H, 5-phenyl-6,7,8,9-tetrahydro-3-(hydroxyimino)-8-ethyl-1H-pyrrolo[3,2-h]isoquinoline-2(3H)-one]",dose-dependently inhibit,more potent antagonists as compared to amiloride,inhibit the pH 6.5-induced inward current
"COc1ccc(F)cc1-c1cc2c(c3c1CCN(C)C3)NC(=O)/C2=N/O [Compound A, 5-(5-fluoro-2-methoxyphenyl)-6,7,8,9-tetrahydro-3-(hydroxyimino)-8-methyl-1H-pyrrolo[3,2-h]isoquinoline-2(3H)-one]",dose-dependently inhibit,more potent antagonists as compared to amiloride,inhibit the pH 6.5-induced inward current
